Measurements published in US20250340565A1, “CD73 INHIBITOR COMPOUNDS” (AdoRx Therapeutics Limited, priority 2022, published 2025).

Key:
[1] = molecular target: human (h)CD73 (amino acids Trp27-Lys547) (Homo sapiens, UniProt P21589); assay: CD73 inhibition assay (Malachite Green phosphate detection); assay type: biochemical; settings: 250 pM hCD73, 12.5 μM AMP, 20 min pre-incubation, absorbance 620 nm
Summary of the method: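 250 pM hCD73 (Trp27-Lys547) preincubated 20 min with compound (1% DMSO) in 25 mM Tris pH 7.5, 5 mM MgCl2, 0.002% Tween20. Reaction with 12.5 μM AMP for 20 min at room temperature; phosphate detected by malachite green at 620 nm. Data normalised to no compound (0%) and 10 μM control compound (100%).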

[2] = molecular target: CD73 activity in U138-MG cells (Homo sapiens (Human), UniProt P21589); assay: U138-MG inhibition assay (inorganic phosphate from AMP, PiColorLock Gold); assay type: cell-based; settings: 100 μM AMP, 30 min pre-incubation, 1 hour at 37° C.
CD73 activity in U138-MG cells, sequence (P21589 27-574): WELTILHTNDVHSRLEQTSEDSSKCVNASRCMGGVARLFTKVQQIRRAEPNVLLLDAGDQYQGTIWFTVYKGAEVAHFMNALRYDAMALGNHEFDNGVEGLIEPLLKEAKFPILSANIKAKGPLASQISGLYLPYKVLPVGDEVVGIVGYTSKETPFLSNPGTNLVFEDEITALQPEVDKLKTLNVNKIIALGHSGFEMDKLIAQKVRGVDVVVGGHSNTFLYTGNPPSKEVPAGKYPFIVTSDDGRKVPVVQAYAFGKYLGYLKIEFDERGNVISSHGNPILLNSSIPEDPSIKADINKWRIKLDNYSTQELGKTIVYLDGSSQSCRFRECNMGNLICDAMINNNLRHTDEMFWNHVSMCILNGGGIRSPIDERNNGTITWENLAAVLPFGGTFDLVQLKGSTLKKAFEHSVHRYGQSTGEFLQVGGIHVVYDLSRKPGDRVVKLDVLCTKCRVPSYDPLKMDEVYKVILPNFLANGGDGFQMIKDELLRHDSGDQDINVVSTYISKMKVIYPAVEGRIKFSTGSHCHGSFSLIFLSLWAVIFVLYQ
Summary of the method: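 Washed U138-MG cells in HEPES-buffered saline (pH 7.4) preincubated 30 min at 37 °C with inhibitor, then given 100 μM AMP (final) for 1 h at 37 °C. Released phosphate in supernatant read by PiColorLock Gold; no-AMP wells define 100% inhibition. IC50 taken as inflection of sigmoidal curve.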

CD73 in whole blood = CD73 in whole blood (Homo sapiens (Human), UniProt P21589); assay: Whole blood AMP Glo assay; assay type: cell-based; settings: whole blood of healthy volunteers, 10 μM AMP, 30 min pre-incubation, 15 min at 37° C., levamisole 1.5 mM
CD73 in whole blood, sequence (P21589 27-574): as above
Summary of the method: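 Heparinised healthy-donor human whole blood, with 1.5 mM levamisole, preincubated with compound 30 min at 37 °C, then 10 μM AMP added for 15 min at 37 °C (0.6% DMSO). Remaining plasma AMP measured by AMP-Glo luminescence against a standard curve; IC50 from curve inflection point.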

Row | IC50 [1] [nM] | IC50 [2] [nM] | IC50 (CD73 in whole blood) [nM] | Compound
1 | 115 | 12 | 20 | CC1(C)CN(c2ccnc3nn(-c4c[nH]c(=O)[nH]c4=O)cc23)CC1(F)F [Example 30, 5-[4-(3,3-difluoro-4,4-dimethyl-pyrrolidin-1-yl)pyrazolo[3,4-b]pyridine-2-yl]-1H-pyrimidine-2,4-dione]
2 | 20.8 | 12.3 | 32 | CC1(C)CN(c2cncc3nn(-c4c[nH]c(=O)[nH]c4=O)cc23)CC1(F)F [Example 31, 5-[4-(3,3-difluoro-4,4-dimethyl-pyrrolidin-1-yl)pyrazolo[3,4-c]pyridine-2-yl]-1H-pyrimidine-2,4-dione]
